Results from patent publication US20230295200A1 (REGENTS OF THE UNIVERSITY OF MICHIGAN, priority 2022, published 2023).

What follows are compounds tested against T1, STAT6 protein (Homo sapiens, UniProt P42226) (assay: Fluorescence polarization (FP) binding assay, STAT6). Settings: FP competition, 5 nM fluorescein-labeled tracer, 200 nM protein, PBS pH7.4; read-out: Binding STAT6.
T1 sequence (P42226 1-847): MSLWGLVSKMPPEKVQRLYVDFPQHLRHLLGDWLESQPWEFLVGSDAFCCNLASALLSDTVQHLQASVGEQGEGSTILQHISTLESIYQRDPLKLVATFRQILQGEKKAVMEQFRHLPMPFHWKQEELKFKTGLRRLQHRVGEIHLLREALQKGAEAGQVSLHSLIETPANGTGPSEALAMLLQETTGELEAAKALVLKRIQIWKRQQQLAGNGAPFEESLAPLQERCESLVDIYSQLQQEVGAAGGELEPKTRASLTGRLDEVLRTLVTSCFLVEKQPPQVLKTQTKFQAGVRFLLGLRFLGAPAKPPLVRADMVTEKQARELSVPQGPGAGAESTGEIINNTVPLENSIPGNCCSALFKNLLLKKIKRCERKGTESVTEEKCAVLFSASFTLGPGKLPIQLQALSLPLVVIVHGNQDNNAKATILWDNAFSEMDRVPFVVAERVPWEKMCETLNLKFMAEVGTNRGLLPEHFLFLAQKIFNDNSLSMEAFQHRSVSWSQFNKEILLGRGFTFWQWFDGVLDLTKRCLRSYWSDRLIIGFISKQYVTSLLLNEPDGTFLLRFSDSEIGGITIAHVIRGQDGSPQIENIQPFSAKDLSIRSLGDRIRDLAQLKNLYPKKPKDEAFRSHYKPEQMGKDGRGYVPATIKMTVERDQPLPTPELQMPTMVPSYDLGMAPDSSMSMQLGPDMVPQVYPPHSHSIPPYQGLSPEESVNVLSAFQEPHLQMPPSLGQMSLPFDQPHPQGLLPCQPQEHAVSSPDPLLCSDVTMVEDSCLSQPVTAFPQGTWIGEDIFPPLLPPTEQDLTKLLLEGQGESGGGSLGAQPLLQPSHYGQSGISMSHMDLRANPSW
Outline: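 Fluorescence polarization is read after STAT5 or STAT6 protein (200 nM) and a fluorescein-labeled tracer (5 nM) equilibrate for 1 h at room temperature in DTT-containing PBS pH 7.4 with BGG and Tween-20. Inhibition constants are obtained by nonlinear curve fitting.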
In the case of `CC(C)C(=O)N1CC[C@H]2CC[C@@H](C(=O)N3CCc4ccccc4C3)N2C(=O)[C@@H](NC(=O)c2cc3cc(C(F)(F)P(=O)(O)O)ccc3[nH]2)C1` [Compound 364, (difluoro(2-(((5S,8S,10aR)-3-isobutyryl-6-oxo-8-(1,2,3,4-tetrahydroisoquinoline-2-carbonyl)decahydropyrrolo[1,2-a][1,5]diazocin-5-yl)carbamoyl)-1H-indol-5-yl)methyl)phosphonic acid], the Ki is reported as over 10 µM.
`CN1CCC(C(=O)N2CC[C@H]3CC[C@@H](C(=O)N4CCc5ccccc5C4)N3C(=O)[C@@H](NC(=O)c3cc4cc(C(F)(F)P(=O)(O)O)ccc4[nH]3)C2)CC1` [Compound 365, (difluoro(2-(((5S,8S,10aR)-3-(1-methylpiperidine-4-carbonyl)-6-oxo-8-(1,2,3,4-tetrahydroisoquinoline-2-carbonyl)decahydropyrrolo[1,2-a][1,5]diazocin-5-yl)carbamoyl)-1H-indol-5-yl)methyl)phosphonic acid] gave a Ki of over 10 µM.
`CC(=O)N1CC[C@H]2CC[C@@H](C(=O)N3CCc4cc(Cl)ccc4C3)N2C(=O)[C@@H](NC(=O)c2cc3cc(C(F)(F)P(=O)(O)O)ccc3[nH]2)C1` [Compound 366, ((2-(((5S,8S,10aR)-3-acetyl-8-(6-chloro-1,2,3,4-tetrahydroisoquinoline-2-carbonyl)-6-oxodecahydropyrrolo[1,2-a][1,5]diazocin-5-yl)carbamoyl)-1H-indol-5-yl)difluoromethyl)phosphonic acid] was tested, and the Ki was over 10 µM.
In the case of `CC(=O)N1CC[C@H]2CC[C@@H](C(=O)N3CCOCC3)N2C(=O)[C@@H](NC(=O)c2cc3cc(C(F)(F)P(=O)(O)O)ccc3[nH]2)C1` [Compound 367, ((2-(((5S,8S,10aR)-3-acetyl-8-(morpholine-4-carbonyl)-6-oxodecahydropyrrolo[1,2-a][1,5]diazocin-5-yl)carbamoyl)-1H-indol-5-yl)difluoromethyl)phosphonic acid], the Ki is reported as over 10 µM.
For `CC(=O)N1CC[C@H]2CC[C@@H](C(=O)N3CCCOCC3)N2C(=O)[C@@H](NC(=O)c2cc3cc(C(F)(F)P(=O)(O)O)ccc3[nH]2)C1` [Compound 368, ((2-(((5S,8S,10aR)-3-acetyl-8-(1,4-oxazepane-4-carbonyl)-6-oxodecahydropyrrolo[1,2-a][1,5]diazocin-5-yl)carbamoyl)-1H-indol-5-yl)difluoromethyl)phosphonic acid], the Ki was over 10 µM.
`CC(=O)N1CC[C@H]2CC[C@@H](C(=O)N3CCCc4ccccc4C3)N2C(=O)[C@@H](NC(=O)c2cc3cc(C(F)(F)P(=O)(O)O)ccc3[nH]2)C1` [Compound 369, ((2-(((5S,8S,10aR)-3-acetyl-6-oxo-8-(2,3,4,5-tetrahydro-1H-benzo[c]azepine-2-carbonyl)decahydropyrrolo[1,2-a][1,5]diazocin-5-yl)carbamoyl)-1H-indol-5-yl)difluoromethyl)phosphonic acid] was tested, and the Ki was over 10 µM.
`CC(=O)N1CC[C@H]2CC[C@@H](C(=O)N(c3ccccc3)c3ccc(Br)cc3)N2C(=O)[C@@H](NC(=O)c2cc3cc(C(F)(F)P(=O)(O)O)ccc3[nH]2)C1` [Compound 370, ((2-(((5S,8S,10aR)-3-acetyl-8-((4-bromophenyl)(phenyl)carbamoyl)-6-oxodecahydropyrrolo[1,2-a][1,5]diazocin-5-yl)carbamoyl)-1H-indol-5-yl)difluoromethyl)phosphonic acid] was tested, and the Ki was 1 to 10 µM.
`CC(=O)N1CC[C@H]2CC[C@@H](C(=O)N(c3ccc(Cl)cc3)C3CCCCC3)N2C(=O)[C@@H](NC(=O)c2cc3cc(C(F)(F)P(=O)(O)O)ccc3[nH]2)C1` [Compound 371, ((2-(((5S,8S,10aR)-3-acetyl-8-((4-chlorophenyl)(cyclohexyl)carbamoyl)-6-oxodecahydropyrrolo[1,2-a][1,5]diazocin-5-yl)carbamoyl)-1H-indol-5-yl)difluoromethyl)phosphonic acid] was tested, and the Ki was over 10 µM.
For `CC(=O)N1CC[C@H]2CC[C@@H](C(=O)N3CCOc4ccccc43)N2C(=O)[C@@H](NC(=O)c2cc3cc(C(F)(F)P(=O)(O)O)ccc3[nH]2)C1` [Compound 372, ((2-(((5S,8S,10aR)-3-acetyl-8-(3,4-dihydro-2H-benzo[b][1,4]oxazine-4-carbonyl)-6-oxodecahydropyrrolo[1,2-a][1,5]diazocin-5-yl)carbamoyl)-1H-indol-5-yl)difluoromethyl)phosphonic acid], the Ki was over 10 µM.
For `CC(=O)N1CC[C@H]2CC[C@@H](C(=O)N3CCc4cc(I)ccc4C3)N2C(=O)[C@@H](NC(=O)c2cc3cc(C(F)(F)P(=O)(O)O)ccc3[nH]2)C1` [Compound 373, ((2-(((5S,8S,10aR)-3-acetyl-8-(6-iodo-1,2,3,4-tetrahydroisoquinoline-2-carbonyl)-6-oxodecahydropyrrolo[1,2-a][1,5]diazocin-5-yl)carbamoyl)-1H-indol-5-yl)difluoromethyl)phosphonic acid], the Ki was 1 to 10 µM.
Compound `CC(=O)N1CC[C@H]2CC[C@@H](C(=O)N3CCc4ccccc4CC3)N2C(=O)[C@@H](NC(=O)c2cc3cc(C(F)(F)P(=O)(O)O)ccc3[nH]2)C1` [Compound 374, ((2-(((5S,8S,10aR)-3-acetyl-6-oxo-8-(2,3,4,5-tetrahydro-1H-benzo[d]azepine-3-carbonyl)decahydropyrrolo[1,2-a][1,5]diazocin-5-yl)carbamoyl)-1H-indol-5-yl)difluoromethyl)phosphonic acid] has a Ki of over 10 µM.
With `CC(=O)N1CC[C@H]2CC[C@@H](C(=O)N(C)c3ccc(Cl)cc3)N2C(=O)[C@@H](NC(=O)c2cc3cc(C(F)(F)P(=O)(O)O)ccc3[nH]2)C1` [Compound 375, ((2-(((5S,8S,10aR)-3-acetyl-8-((4-chlorophenyl)(methyl)carbamoyl)-6-oxodecahydropyrrolo[1,2-a][1,5]diazocin-5-yl)carbamoyl)-1H-indol-5-yl)difluoromethyl)phosphonic acid] the Ki was over 10 µM.
Compound `CC(=O)N1CC[C@H]2CC[C@@H](C(=O)N(C)c3ccc(F)cc3)N2C(=O)[C@@H](NC(=O)c2cc3cc(C(F)(F)P(=O)(O)O)ccc3[nH]2)C1` [Compound 376, ((2-(((5S,8S,10aR)-3-acetyl-8-((4-fluorophenyl)(methyl)carbamoyl)-6-oxodecahydropyrrolo[1,2-a][1,5]diazocin-5-yl)carbamoyl)-1H-indol-5-yl)difluoromethyl)phosphonic acid] has a Ki of over 10 µM.
`CC(=O)N1CC[C@H]2CC[C@@H](C(=O)N3Cc4ccc(Cl)cc4C3)N2C(=O)[C@@H](NC(=O)c2cc3cc(C(F)(F)P(=O)(O)O)ccc3[nH]2)C1` [Compound 377, ((2-(((5,8S,10aR)-3-acetyl-8-(5-chloroisoindoline-2-carbonyl)-6-oxodecahydropyrrolo[1,2-a][1,5]diazocin-5-yl)carbamoyl)-1H-indol-5-yl)difluoromethyl)phosphonic acid] showed a Ki of over 10 µM.
Work on `CC(=O)N1CC[C@H]2CC[C@@H](C(=O)N3Cc4cccc(Cl)c4C3)N2C(=O)[C@@H](NC(=O)c2cc3cc(C(F)(F)P(=O)(O)O)ccc3[nH]2)C1` [Compound 378, ((2-(((5S,8S,10aR)-3-acetyl-8-(4-chloroisoindoline-2-carbonyl)-6-oxodecahydropyrrolo[1,2-a][1,5]diazocin-5-yl)carbamoyl)-1H-indol-5-yl)difluoromethyl)phosphonic acid] yielded a Ki of over 10 µM.
`CN(C(=O)[C@@H]1CC[C@@H]2CCC[C@H](NC(=O)c3cc4cc(C(F)(F)P(=O)(O)O)ccc4s3)C(=O)N21)c1ccc(Cl)cc1` [Compound 379, ((2-(((3S,6S,9aS)-3-((4-chlorophenyl)(methyl)carbamoyl)-5-oxooctahydro-1H-pyrrolo[1,2-a]azepin-6-yl)carbamoyl)benzo[b]thiophen-5-yl)difluoromethyl)phosphonic acid] gave a Ki of over 10 µM.
`CN(C(=O)[C@@H]1CC[C@H]2CCC[C@H](NC(=O)c3cc4cc(C(F)(F)P(=O)(O)O)ccc4s3)C(=O)N21)c1ccc(Cl)cc1` [Compound 380, ((2-(((3S,65,9aR)-3-((4-chlorophenyl)(methyl)carbamoyl)-5-oxooctahydro-1H-pyrrolo[1,2-a]azepin-6-yl)carbamoyl)benzo[b]thiophen-5-yl)difluoromethyl)phosphonic acid] showed a Ki of over 10 µM.
`CC(=O)N1CC[C@H]2CC[C@@H](C(=O)N3CCCCC3)N2C(=O)[C@@H](NC(=O)c2cc3cc(C(F)(F)P(=O)(O)O)ccc3s2)C1` [Compound 381, ((2-(((5S,8S,10aR)-3-acetyl-6-oxo-8-(piperidine-1-carbonyl)decahydropyrrolo[1,2-a][1,5]diazocin-5-yl)carbamoyl)benzo[b]thiophen-5-yl)difluoromethyl)phosphonic acid] showed a Ki of over 10 µM.
